# Measured values reported in PMC11032350, “SMS121, a new inhibitor of CD36, impairs fatty acid uptake and viability of acute myeloid leukemia” (Scientific Reports, 2024).
# Biological target: T1, CD36 (Homo sapiens, UniProt P16671)
# T1 construct: commercial biotinylated His, Avitag human CD36, captured on streptavidin CAP chip
# Experiment: SPR (Biacore […]), steady-state […] fit
# Type: binding
# T1 sequence (P16671 30-439 limits assumed): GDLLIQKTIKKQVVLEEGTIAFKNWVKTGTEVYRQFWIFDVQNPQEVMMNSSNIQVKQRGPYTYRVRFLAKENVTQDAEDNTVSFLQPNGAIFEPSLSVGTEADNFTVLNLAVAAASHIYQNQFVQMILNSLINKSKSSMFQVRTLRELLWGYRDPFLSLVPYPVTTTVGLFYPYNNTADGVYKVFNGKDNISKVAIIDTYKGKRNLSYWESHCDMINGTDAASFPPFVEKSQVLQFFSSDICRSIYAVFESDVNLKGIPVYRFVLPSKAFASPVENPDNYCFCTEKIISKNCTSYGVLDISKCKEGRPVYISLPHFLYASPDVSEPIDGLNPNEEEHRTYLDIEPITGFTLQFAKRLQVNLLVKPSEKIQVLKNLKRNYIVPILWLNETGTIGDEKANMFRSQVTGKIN
smiles,measurement,value
"COc1cc(/C=C/C(=O)c2ccc(N(C)C)cc2)ccc1OCC(=O)O [SMS121, (E)-2-(4-(3-(4-(dimethylamino)phenyl)-3-oxoprop-1-en-1-yl)-2-methoxyphenoxy) acetic acid]",Kd,~5 µM
